The results in this text go back to PMC9785194, “New Dibenzo-α-pyrone Derivatives with α-Glucosidase Inhibitory Activities from the Marine-Derived Fungus Alternaria alternata” (Marine Drugs, 2022).

In experiment [1] the target is α-glucosidase. Briefly: α-glucosidase inhibition assay (p-NPG substrate). The experiment is classed as biochemical, Saccharomyces cerevisiae. The note with it: for IC50: 0.5 U/mL enzyme, p-NPG substrate, 37 °C; for α-glucosidase inhibition rate: at a concentration of 400 µM. Here is the method: (§1) Optical rotations were measured with an Anton Paar MCP 200 Automatic Polarimeter (Anton Paar, Graz, Austria). The UV data were recorded on a Thermo Genesys-10S UV/Vis spectrophotometer (Thermo Fisher Scientific, Waltham, MA, USA). ECD spectra were recorded with a JASCO J-815 spectropolarimeter (JASCO, Tsukuba, Japan) by using CH3OH as the solvent. Infrared spectra were obtained on a Nicolet IS5 FT-IR spectrophotometer (Thermo Fisher Scientific, Waltham, MA, USA). ^1H and ^13C NMR spectroscopic data were acquired with a Bruker Avance-500 spectrometer (Bruker, Bremen, Germany) using the solvent signals as a reference (CD3OD: δH 3.31/δC 49.00). HRESIMS data were obtained using an Agilent Accurate-Mass-Q-TOF LC/MS 6520 instrument (Agilent Technologies, Santa Clara, CA, USA) equipped with an electrospray ionization (ESI) source. Semi-preparative HPLC separation was performed on an Agilent 1260 instrument equipped with a variable-wavelength UV detector (Agilent Technologies Inc., CA, USA) using a YMC-pack ODS-A (10 × 250 mm, 5 μm, 2 mL/min, YMC CO., LTD., Kyoto, Japan).
The α-glucosidase inhibitory activity assay was measured as described in previous reports. Briefly, 50 μL of 0.5 U/mL α-glucosidase and 25 μL of a series of solutions (0.1, 0.2, 0.4, 0.8 and 1.6 mM) of the test compounds 1−10 were added into 96-well plates. After incubation at 37 °C for 10 min, 25 μL of 25 mM p-NPG was added and further incubated at 37 °C for 10 min.

Experiment [2] has as its system α-glucosidase. Briefly: enzyme kinetics of α-glucosidase inhibition (Lineweaver-Burk and secondary plots). The experiment is classed as biochemical, Saccharomyces cerevisiae. The note with it: for inhibition type against α-glucosidase: Lineweaver-Burk plots; for Ki: secondary plots, free enzyme, read-out: Ki (the inhibition constant of the free enzyme). Here is the method: as §1
The inhibition types of compounds 2 and 3 on α-glucosidase were determined by Lineweaver−Burk plots according to a previous report. The α-glucosidase inhibition kinetics were determined with selected concentrations of p-NPG (1.5625, 3.125, 6.25, 12.5 and 25 mM) under different concentrations of 2 and 3 (200, 400 and 800 μM) by keeping the enzyme concentration at 0.5 U/mL. The inhibition constant was determined by the second plots of the apparent Km/Vm or 1/Vm versus the concentration of the inhibitor.

Experiment [3] is described as follows: DPPH antioxidant scavenging assay. Conditions: 37 °C, 30 min, absorbance 517 nm. As to the method:
The DPPH antioxidant scavenging assay was performed according to the previously reported method. Briefly, 50 µL of DPPH (0.34 mmol/L in EtOH) and 50 µL of a series of solutions (12.5, 25, 50, 100, and 200 μM) of the test compounds 1−10 were mixed in the wells of 96-well plates. Each mixture was incubated at 37 °C for 30 min in a dark environment. The absorbance was read at 517 nm using a microplate reader, employing distilled water as a blank for baseline correction. All experiments were performed in triplicate, and ascorbic acid was used as a positive control.
(DPPH is a stable violet radical that fades when it is reduced.)

Structures are written as SMILES.

As usually defined, the IC50 is the concentration that inhibits the measured activity by half. Lower therefore signals inhibition by little substance. A word on the Ki: it is a measure of affinity in units of concentration, obtained from inhibition or displacement.

On to `CC12CC(O)C(O)C=C1c1cc(O)cc(O)c1C(=O)O2` (stereo not drawn) [Compound 2, Alternolide B], for which it took 725.9 ± 4.75 µM to reach half-maximal inhibition in experiment [1] (IC50). The molecule also returned a α-glucosidase inhibition rate in experiment [1] (400 µM) of 36.62%. Further, in experiment [2], the “inhibition type against α-glucosidase” value is given as “mixed-type inhibitors” and the Ki worked out at 347 µM.
For `CC12CC(O)C(O)C=C1c1cc(O)cc(O)c1C(=O)O2` (stereo not drawn) [Compound 3, Alternolide C], the IC50 in experiment [1] worked out at 451 ± 6.95 µM. Besides, the α-glucosidase inhibition rate in experiment [1] (400 µM) was 49.24%. In experiment [2], the “inhibition type against α-glucosidase” value is “mixed-type inhibitors” and the Ki stood at 108 µM.
`COc1cc(O)c2c(=O)oc3c(O)c(O)cc(C)c3c2c1` [Compound 6, 3′-hydroxyalternariol 5-O-methyl ether] came in with an IC50 in experiment [3] of 83.9 ± 4.14 µM.
Consider `COc1cc(O)c2c(=O)oc3cc(O)cc(CO)c3c2c1` [Compound 7, alternariol 1′-hydroxy-9-methyl ether], for which the IC50 stood at 23.6 ± 1.23 µM in experiment [3] and 6.27 ± 0.68 µM in experiment [1]. In addition, in experiment [1], the α-glucosidase inhibition rate was 93.70%.
In the case of `COc1cc2oc(=O)c3c(O)cc(O)cc3c2cc1O` [Compound 8, altenuisol], in experiment [1], the α-glucosidase inhibition rate was 37.29%.
With `COc1cc(O)c2c(=O)oc3c(c2c1)[C@@H](C)CC3=O` [Compound 9, 1-deoxyrubralactone], in experiment [1], the α-glucosidase inhibition rate worked out at 53.95%.
Molecule `O=C1O[C@H]([C@@H](O)CO)C(O)=C1O` [ascorbic acid, reference compound] had an IC50 in experiment [3] of 23.7 ± 1.03 µM.
